The values below come from patent publication US7582786B2, “Synthetic catalytic free radical scavengers useful as antioxidants for prevention and therapy of disease” (Eukarion Inc., priority 1996, dated 2009).

Structures are written as SMILES.

This assay concerns isolated iron-overloaded rat hearts. As to the kind of experiment: Isolated iron-overloaded rat hearts submitted to ischemia and reperfusion (function and electron microscopy). Here is the method: Rats received an intramuscular injection of 0.25 ml of an iron-dextran solution (100 g iron hydroxide, 99 g dextran, water up to 1 l) every third day during a 5-week period to achieve a significant iron overload in cardiac tissue. At the end of this treatment, rats were anesthetized with sodium pentobarbital (40 mg/kg) and heparin (1,000 IU/kg) was administered via a femoral vein. Hearts were then removed and rapidly perfused through the aorta according to the technique described by Langendorff [Langendorff, O., Pflügers Arch. 61: 291, 1895] at a constant flow rate of 11 ml/minute. The perfusion fluid was a modified Krebs-Henseleit buffer containing (in mmol/l): NaCl 118, KCl 5.9, NaHCO3 25, MgCl2 1.2, NaH2PO4 0.6, CaCl2 2.4, Glucose […]. pH was maintained at 7.4±0.05 when the perfusion medium was saturated with O2—CO2 (95%-5%) at 37° C. The perfusion apparatus was fully thermostated such that the temperature of the perfusion medium was 37.0±0.5° C. when it reached the aorta. An ultra-thin balloon was inserted in the left ventricle immediately after the initiation of aortic perfusion and was inflated so as to obtain an end-diastolic pressure of 5 mm Hg. A 15 minute stabilization period was initiated immediately following balloon placement. At the end of this period, systolic and diastolic ventricular pressures and heart beat rate (HR) were recorded through a pressure transducer linked to the ventricular balloon. Left Ventricular Developed Pressure (LVDP) was calculated by the difference between systolic and diastolic pressure and the product HR×LVDP was taken as an index of oxygen consumption. Hearts were then subjected to a 15 minute total global normothermic ischemia, followed by 15 minutes of reperfusion with the perfusion medium used initially. During this 15 minute reperfusion, heart rate, and diastolic and systolic pressures were monitored. Early ventricular fibrillations were analyzed 1 min. after the start of the reperfusion.
Three experimental groups were studied.
After the 15 minute reperfusion, 3 hearts in each group were prepared for electron microscopy by perfusion with 2.5% glutaraldehyde. Ultra-thin slices (500-600 Å thickness) were examined.
Mitochondria were classified into Type A (normal), Type B (swollen, unbroken), and Type C (ruptured membranes). Sarcomeres were classified into Type A (normal) and Type B (contacted and/or necrosis). The results are expressed as percentages.

[1] abbreviates: 1 minute after reperfusion, DMTU 10 mM, C7 50 μM.
[2] abbreviates: 15 minutes after reperfusion, DMTU 10 mM, C7 50 μM.
The mark [3] stands for this setting: Before ischemia, DMTU 10 mM, C7 50 μM.
[4] abbreviates: electron microscopy after 15 minute reperfusion.

For the molecule `[Cl][Mn]1[O]c2ccccc2C=NCCN=Cc2ccccc2[O]1` [Compound C7], under setting [1], the DP is reported as 5.8 ± 0.5#± mm Hg, the HR stood at 130 ± 13 beats/min, the “HR × LVDP” value is on record as 9.9 ± 0.8#± ×10.3 and the SP turned out to be 72 ± 8 mm Hg. Also, under setting [1], the “VF, number of hearts exhibiting episodes of ventricular fibrillation” value is given as 2/8. Under setting [2], the DP is listed as 8.3 ± 0.6 mm Hg, the HR is on record as 241 ± 15 beats/min and the SP stood at 92 ± 15 mm Hg. Besides, under setting [3], the DP was 5.4 ± 0.3 mm Hg, the HR came out at 278 ± 7 beats/min, the “HR × LVDP” value was found to be 23.5 ± 0.9 ×10.3 and the SP was 90 ± 2 mm Hg. Besides, the “protection of hearts from ischemia/reoxygenation damage” value (C7 50 μM) is recorded as “effectively protected hearts”. Further, under setting [4], the “Mitochondria Type A (normal)” value is reported as 31.0#± %, the “Mitochondria Type C (ruptured membranes)” value is on record as 53.8#± %, the “Sarcomeres Type A (normal)” value was 60.6#± % and the “Sarcomeres Type B (contacted and/or necrosis)” value is 39.4#± %.
